Experimental data: BindingDB's records for doi:10.7270/Q2G44NQ4 (Emory University, 2007)

Biological target: Mothers against decapentaplegic homolog 3 (Homo sapiens, UniProt P84022)
Test: inhibitors of SMAD-driven TGF-beta signaling – dose response (AID 715)

Sequence of Mothers against decapentaplegic homolog 3 (P84022 whole entry): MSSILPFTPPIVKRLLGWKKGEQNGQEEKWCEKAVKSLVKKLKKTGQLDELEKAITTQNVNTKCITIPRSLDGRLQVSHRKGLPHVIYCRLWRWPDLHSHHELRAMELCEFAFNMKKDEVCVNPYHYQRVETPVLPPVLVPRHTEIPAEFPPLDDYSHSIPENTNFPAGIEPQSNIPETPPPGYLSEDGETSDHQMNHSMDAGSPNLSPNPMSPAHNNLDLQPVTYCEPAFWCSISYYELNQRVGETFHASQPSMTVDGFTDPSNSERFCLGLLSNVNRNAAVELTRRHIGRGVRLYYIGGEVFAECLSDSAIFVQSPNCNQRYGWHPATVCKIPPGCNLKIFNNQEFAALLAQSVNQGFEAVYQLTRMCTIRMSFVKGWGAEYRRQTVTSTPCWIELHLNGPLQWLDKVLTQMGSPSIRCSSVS

Row | Compound | IC50 [µM]
1 | Cc1ccc(-[n+]2c(O)csc2[C-](C(Cl)=C(Cl)Cl)[N+](=O)[O-])cc1 [(2E)-3-(4-methylphenyl)-2-[2,3,3-tris(chloranyl)-1-nitro-prop-2-enylidene]-1,3-thiazolidin-4-one] | 27.7
2 | O=C1C=CC(CN=Nc2nccs2)C=C1[N+](=O)[O-] (centres undefined) [(4Z)-2-nitro-4-[(2-thiazolylhydrazo)methylidene]-1-cyclohexa-2,5-dienone] | 30.9
3 | CC1(C)CC(=O)C(C2(O)C(=O)NC(=O)NC2=O)C(=O)C1 [5-(4,4-dimethyl-2-oxidanyl-6-oxidanylidene-cyclohexen-1-yl)-5-oxidanyl-1,3-diazinane-2,4,6-trione] | 2.3
4 | CCN(CC)P(=O)(NC(=O)C(Cl)(Cl)Cl)N(CC)CC [MLS000564159] | 14.1
